Where no end group is shown, it is not given here.
Tests used:
[1] = test system: adhesion factors for hematopoietic stem cells present in osteoblasts; assay: Expression level of adhesion factors in osteoblasts differentiated from BM-MSC (real-time quantitative PCR); assay type: cell-based, C57BL/6 mouse; conditions: osteoblasts treated with 0 nM and 10 nM for three days, compared with untreated Control; p<0.05
Excerpt: After a 4-week- to 6-week-old C57BL/6 mouse was anesthetized and sacrificed, the tibias and the femurs were removed. Bone marrow was harvested from the tibias and the femurs, and a single cell suspension was obtained by using a 40 μm cell strainer (Becton-Dickinson LAβware, Franklin Lakes, N.J.). About 10^7 cells were divided in a 75-cm^2 flask including Mesenchymal Stem Cell Stimulatory Supplements (Stem Cell Technologies, Inc.) added with antibiotics and MesenCult™ MSC Basal medium. After being cultured for one week, the cells were cultured for three weeks in StemXVivo Osteogenic/Adipogenic Base Media (R&D systems) added with StemXVivo Osteogenic supplement (20×) and penicillin-streptomycin (100×) for differentiation into osteoblasts. The culture media were replaced every 2 to 3 days.
(§1) In order to measure expression levels of adhesion factors (Sdf-1a, Kitl, Angpt1, IL7, Vcam1, Spp1) for hematopoietic stem cells present in osteoblasts, a real-time quantitative PCR was used.
An RNeasy Plus mini kit (Qiagen, Korea, Ltd.) was used to extract total RNA from a cell eluent and bone marrow cells. […] Further, a Corbett research RG-6000 real-time PCR device was used to perform a real-time quantitative PCR repeatedly for 40 cycles under a condition of 95° C. for 10 minutes; 95° C. for 10 seconds; 58° C. for 15 seconds; and 72° C. for 20 seconds per cycle. […]

[2] = test system: bone marrow hematopoietic stem cells (Lineage, Sca-1, c-kit); assay: Flow cytometry (FACs): number of bone marrow hematopoietic stem cells in bone marrow of normal mice; assay type: in vivo, C57BL/6 mice; conditions: 50 μg/kg vs PBS, bone marrow harvested after 60 minutes, p<0.05
Protocol: In order to find out any change in the number of bone marrow hematopoietic stem cells present in bone marrow of mice, Osteopep1 and PBS were injected to normal mice, respectively. After 60 minutes, bone marrow was harvested, and FACs was conducted to the harvested bone marrow by using three kinds of antibodies including Lineage, Sca-1, and c-kit as markers of bone marrow hematopoietic stem cells.
For analyzing bone marrow hematopoietic stem cells, red blood cells were removed from bone marrow, which was harvested from the tibias and the femurs of a 4-week- to 6-week-old C57BL/6 mouse, with an ammonium chloride solution (Stem Cell Technologies, Inc. 1:4) and then, the bone marrow was washed with a PBS (Gibco) solution including 10% fetal bovine serum (FBS) (Gibco) and 1% sodium azide (Sigma-Aldrich) and centrifuged for 10 minutes at 300×g. The hematopoietic cells included in the bone marrow were removed with MACs beads (Miltenyi Biotec) by using a biotinylated lineage antibody (Miltenyi Biotec), and the remaining cells were reacted at 4° C. for 30 minutes by using Sca-1-PECY7, c-kit-APC, CD150-PE, and CD48-FITC antibodies (BD science) and then analyzed with a flow cytometer LSRII (BD science).
Firstly, normal mice were divided into two groups each including 3 mice, and the respective groups were administered with 50 μg/kg of Osteopep1 and 100 μl of PBS (Gibco). […]

[3] = test system: bone marrow hematopoietic stem cells; assay: Mobilization of bone marrow hematopoietic stem cells to blood in osteoporosis model, by markers of bone marrow hematopoietic stem cells; assay type: in vivo, mice; conditions: osteoporosis (ovariectomy) model, 50 μg/kg intraperitoneally every 12 hours for 3 weeks; p<0.05
Protocol: FIG. 9 is a diagram illustrating a mobilization level of bone marrow hematopoietic stem cells to blood when Osteopep1 is administered to an osteoporosis model, by using a marker of a bone marrow hematopoietic stem cell.
(§2) After 1 week, 50 μg/kg of Osteopep1 (PEPTRON) and 100 μl of PBS (Gibco) were intraperitoneally administered every 12 hours twice per day for 3 weeks.
In order to check whether mobilization of bone marrow hematopoietic progenitor cells to blood in an osteoporosis model is induced by Osteopep1 of the present disclosure, the following experiment was conducted.

[4] = test system: adhesion factors (Sdf-1a, Kitl, Angpt1, IL7, Vcam1, Spp1) for hematopoietic stem cells; assay: Expression of adhesion factors for bone marrow hematopoietic stem cells in osteoporosis model (real-time quantitative PCR); assay type: in vivo, mice; conditions: osteoporosis (ovariectomy) models, 50 μg/kg intraperitoneally every 12 hours for 3 weeks; p<0.05
Protocol: as §2, §1
(§3) An RNeasy Plus mini kit (Qiagen, Korea, Ltd.) was used to extract total RNA from a cell eluent and bone marrow cells. A kit produced by Clontech (Mountain View, Calif.) was used to synthesize cDNA from 5 μg of the total RNA. Further, a Corbett research RG-6000 real-time PCR device was used to perform a real-time quantitative PCR repeatedly for 40 cycles under a condition of 95° C. for 10 minutes; 95° C. for 10 seconds; 58° C. for 15 seconds; and 72° C. for 20 seconds per cycle.
After 1 week, 50 μg/kg of Osteopep1 (PEPTRON) and 100 μl of PBS (Gibco) were intraperitoneally administered every 12 hours twice per day for 3 weeks. […] On the 22nd day, the femurs was separated from the mouse and refrigerated in 80% ethanol. Then, a bone density and a trabecular thickness were measured by micro CT. […]

[5] = test system: bone marrow hematopoietic progenitor cells in blood; assay: Colony-forming unit (CFU) assay: number of bone marrow hematopoietic progenitor cells in blood of normal mice; assay type: in vivo, C57BL/6 mice; conditions: normal mouse, 50 μg/kg intravenous injection to tail, blood collected after 60 minutes; p<0.05
Protocol: In order to measure the number of bone marrow hematopoietic progenitor cells in blood of a mouse, CFU assays were conducted. A mouse was anesthetized, and then, 500 μl to 700 μl of blood was collected from the heart into a heparin tube. Then, the collected blood was put into an ammonium chloride solution (Stem Cell Technologies, Inc. 1:10) and then placed in ice for 15 minutes, and red blood cells were removed. The resultant solution was shaken every 2 to 3 minutes to remove red blood cells well, and then, centrifuged for 7 minutes at 1000 rpm. The supernatant was removed, and the resultant solution was washed with IMDM (Gibco) supplied with 2% fetal bovine serum (FBS) (Gibco). The washed cells (3×10^5 per mouse) were divided into three 35 mm dishes (1×10^5 per dish) respectively including methylcellulose-based media (Methocult, Stem cell), and then, cultured for 2 weeks. Then, the number of colonies in the flask was counted. In order to check whether mobilization of bone marrow hematopoietic progenitor cells to blood is induced by a decrease in expression level of the adhesion factors caused by administration of Osteopep1 of the present disclosure, a mouse was administered with 50 μg/kg of Osteopep1 by intravenous injection to its tail, and after 60 minutes, blood was collected from the heart. Then, a CFU (Colony-forming unit) assay was conducted thereto.

[6] = test system: bone (femurs); assay: Micro CT of femurs: bone density and trabecular thickness in osteoporosis (ovariectomy) model and control mice; assay type: in vivo; conditions: osteoporosis model mouse, 50 μg/kg intraperitoneally twice per day for 3 weeks, compared with PBS; micro CT on 22nd day
Protocol: After 1 week, 50 μg/kg of Osteopep1 (PEPTRON) and 100 μl of PBS (Gibco) were intraperitoneally administered every 12 hours twice per day for 3 weeks. […] The femurs was separated from the mouse and refrigerated in 80% ethanol. Then, for micro CT scanning, a tissue having a thickness of 40 μm was measured with a micro CT scanner (Inveon preclinical CT, Siemens Healthcare, Hoffman Estates, Ill.) under conditions including an exposure time of 600 msec, photon energy of 70 keV, and a current of 400 μA. In order to measure a bone density (bone volume/total volume) and a trabecular thickness, pieces each having a volume of 2.5×0.5×0 5 mm^3 from the same site of each group were measured with Siemens Inveon Software. […] After 1 week, 50 μg/kg of Osteopep1 (PEPTRON) and 100 μl of PBS (Gibco) were intraperitoneally administered every 12 hours twice per day for 3 weeks. […] On the 22nd day, the femurs was separated from the mouse and refrigerated in 80% ethanol. Then, a bone density and a trabecular thickness were measured by micro CT.

[7] = test system: adhesion factors (Sdf-1a, Kitl, Angpt1, IL7, Vcam1, Spp1) for hematopoietic stem cells; assay: Expression level of adhesion factors for hematopoietic stem cells in bone marrow of normal mice (real-time quantitative PCR); assay type: in vivo, C57BL/6 mice; conditions: normal mouse, 50 μg/kg intravenous injection to tail, bone marrow harvested after 60 minutes; p<0.05
Protocol: Osteopep1 used herein was produced by PEPTRON. For in vitro experiment, 0 nM Osteopep1 and 10 nM Osteopep1 were diluted in respective media and then injected. Further, for in vivo experiment, three mice per group, fifteen mice in total, were anesthetized with a mixed solution of 100 mg/kg of ketamine and 10 mg/kg of xylazine. Further, the each mouse was administered with 50 μg/kg of Osteopep1 and 100 μl of PBS (Gibco) by intravenous injection to its tail.
as §1
as §3, with “cycle. […]” for “cycle.”

[8] = test system: bone marrow hematopoietic progenitor cells in blood; assay: CFU assay: mobilization of bone marrow hematopoietic progenitor cells to blood in osteoporosis model; assay type: in vivo, mice; conditions: osteoporosis (ovariectomy) models, 50 μg/kg intraperitoneally every 12 hours for 3 weeks; p<0.05
Protocol: After 1 week, 50 μg/kg of Osteopep1 (PEPTRON) and 100 μl of PBS (Gibco) were intraperitoneally administered every 12 hours twice per day for 3 weeks. […] In order to measure the number of bone marrow hematopoietic progenitor cells in blood of a mouse, CFU assays were conducted. A mouse was anesthetized, and then, 500 μl to 700 μl of blood was collected from the heart into a heparin tube. Then, the collected blood was put into an ammonium chloride solution (Stem Cell Technologies, Inc. 1:10) and then placed in ice for 15 minutes, and red blood cells were removed. The resultant solution was shaken every 2 to 3 minutes to remove red blood cells well, and then, centrifuged for 7 minutes at 1000 rpm. The supernatant was removed, and the resultant solution was washed with IMDM (Gibco) supplied with 2% fetal bovine serum (FBS) (Gibco). The washed cells (3×10^5 per mouse) were divided into three 35 mm dishes (1×10^5 per dish) respectively including methylcellulose-based media (Methocult, Stem cell), and then, cultured for 2 weeks. Then, the number of colonies in the flask was counted. In order to find out effects of administration of Osteopep1 of the present disclosure on bone marrow hematopoietic progenitor cells mobilized to blood in an osteoporosis model, an experiment was conducted in the same manner as the method of Example 1-4.

DNPGEDAPAEDMARY [Osteopep1]
expression levels of Sdf-1a, Kitl, and Angpt1 in osteoblasts [1]: concentration-dependently decreased
bone marrow hematopoietic stem cells marked by Lineage, Sca-1, and c-kit in bone marrow (FACs) [2]: decreased
mobilized amounts of the markers of bone marrow hematopoietic stem cells [3]: increased
expression levels of the adhesion factors (Sdf-1a, Kitl, Angpt1, IL7, Vcam1, Spp1) for hematopoietic stem cells [4]: decreased
mobilization of bone marrow hematopoietic progenitor cells to blood (CFU assay) [5]: increased
bone density percentage (BV/TV, %) [6]: increased
trabecular thickness (mm) [6]: increased
expression levels of the main adhesion factors Sdf-1a, Kitl, Angpt1, and Spp1 [7]: decreased
mobilization of bone marrow hematopoietic progenitor cells to blood (CFU assay) [8]: increased
